One series concerns RKO cells. Put plainly: Combination of Asperphenin B with other anticancer drugs, SRB cell viability. The series is classed as cell-based, human. The note with it: 48 hours; for Effect of administration in combination: <1 synergistic, =1 additive, >1 antagonistic; for Effects of cell growth inhibition in combination with Asperphenin B compared to the anticancer drug alone: FIGS. 7A to 7C. The protocol: RKO cells diluted in a medium containing 10% (v/v) FBS were inoculated in each well of a 96-well microplate so that each plate included 7×10^3 cells, and then, the cells were cultured for about 24 hours at a temperature of 37° C. under the condition of 5% CO2. In the medium containing 10% (v/v) FBS, irinotecan (Sigma Aldrich), 5-fluorouracil (Sigma Aldrich), or gemsitabin (Sigma Aldrich) was mixed with […] at a ratio of 1:1, and then, the mixture was added to the cultured cells. Then, the cells were cultured for 48 hours at a temperature of 37° C. under the conditions of 5% CO2. […] In addition, the effects of the administration in combination were measured according to Equation 1, and results thereof are shown in Table 8. Effects of administration in combination=D1/(Dx)1+D2/(Dx)2 [Equation 1] D1: Concentration of […] with expected effect in administration in combination D2: Concentration of other anticancer drugs with expected effect in administration in combination (Dx)1: Concentration of […] with expected effect in administration of […] only (Dx)2: Concentration of other anticancer drugs with expected effect in administration of other anticancer drugs only […]

Series [1] relates to colon cancer cell line HCT116. Put plainly: SRB cell viability assay, colon cancer cell line HCT116. The series is classed as cell-based. On the procedure:
(§1) Regarding a lung cancer cell line A549 (Korean Cell line Bank), a colon cancer cell line HCT116 (ATCC), a stomach cancer cell line SNU638 (Korean Cell Line Bank), a liver cancer cell line SK-HEP-1 (Korean Cell line Bank), and a breast cancer cell line MDA-MB-231 (Korean Cell line Bank), a sulforhodamine B (SRB) assay which is a method of measuring cell viability was used for measuring apoptosis effects of Asperphenin.
(§2) In detail, 190 μl of a cell suspension at a concentration of 3.5×10^4 cells/ml was inoculated in each well of a 96-well microplate. 0.8 μM, 4 μM, 20 μM, or 100 μM of Asperphenin was added to the cell culture medium, and cultured at a temperature of 37° C. for 72 hours under the condition of 5% CO2. After incubation, 50 μl of 50% (v/v) trichloroacetic acid solution (Sigma Aldrich) was added to each well, and then, incubated at a temperature of 4° C. for 30 minutes, to thereby fix the cells thereto. The fixed cells were washed with water five times, and then, dried in the air.
(§3) Next, 80 μl of a 0.4% (w/v) SRB aqueous solution (Sigma Aldrich) containing 1% (v/v) acetic acid (DUKSAN) was added to each well, incubated at room temperature for 1 hour to stain cells therein, and the stained cells washed with water and dried. The cells were dissolved by adding 200 μl of 10 mM Tris (pH 10.0) (Sigma Aldrich) to each well, and then, the number of living cells was calculated by measuring the absorbance thereof at 515 nm. The concentration of the compound inhibiting cell growth to 50% based on the number of the living cells, i.e., 50% inhibition concentration (IC50) was calculated, and the results are shown in Table 3. Here, as a positive control, etoposide (Sigma Aldrich) was used.
From the colon cancer cell lines HCT116 (ATCC), HCT15 (Korean Cell Line Bank), LS174T (Korean Cell Line Bank), RKO(ATCC), and SW480(ATCC), cell growth inhibition concentrations (IC50, μM) were calculated as described in Example 2-1, and the results are shown in Table 4. Here, as a positive control, paclitaxel (Sigma Aldrich) was used.

For series [2], the system named is stomach cancer cell line SNU638. The series can be described thus: SRB cell viability assay, stomach cancer cell line SNU638. In kind it is cell-based. The note with it: SNU638, 72 hours, read-out: Cell growth inhibition concentration (IC50). On the procedure:
as §1, §2, §3

Series [3] has as its system liver cancer cell line SK-HEP-1. Put plainly: SRB cell viability assay, liver cancer cell line SK-HEP-1. The note with it: SK-HEP-1, 72 hours, read-out: Cell growth inhibition concentration (IC50). The series is classed as cell-based. On the procedure:
as §1, §2, §3

The subject of series [4] is breast cancer cell line MDA-MB-231. Put plainly: SRB cell viability assay, breast cancer cell line MDA-MB-231. In kind it is cell-based. Particulars: MDA-MB-231, 72 hours, read-out: Cell growth inhibition concentration (IC50). The protocol: as §1, §2, §3
A short description of series [5]: Physicochemical characterization.
For series [6], the system named is lung cancer cell line A549. Put plainly: SRB cell viability assay, lung cancer cell line A549. The series is classed as cell-based. The note with it: A549, 72 hours, read-out: Cell growth inhibition concentration (IC50). On the procedure:
as §1, §2, §3

The subject of series [7] is colon cancer cell line RKO. The series can be described thus: SRB cell viability assay, colon cancer cell line RKO. The series is classed as cell-based. The note with it: Homo sapiens, read-out: Growth inhibition value of cancer cell (IC50). The protocol: as §2
(§4) Next, 80 μl of a 0.4% (w/v) SRB aqueous solution (Sigma Aldrich) containing 1% (v/v) acetic acid (DUKSAN) was added to each well, incubated at room temperature for 1 hour to stain cells therein, and the stained cells washed with water and dried. The cells were dissolved by adding 200 μl of 10 mM Tris (pH 10.0) (Sigma Aldrich) to each well, and then, the number of living cells was calculated by measuring the absorbance thereof at 515 nm. […]
(§5) From the colon cancer cell lines HCT116 (ATCC), HCT15 (Korean Cell Line Bank), LS174T (Korean Cell Line Bank), RKO(ATCC), and SW480(ATCC), cell growth inhibition concentrations (IC50, μM) were calculated as described in Example 2-1, and the results are shown in Table 4. […]

Series [8] deals with colon cancer cell line LS174T. Put plainly: SRB cell viability assay, colon cancer cell line LS174T. The series is classed as cell-based. The note with it: Homo sapiens, read-out: Growth inhibition value of cancer cell (IC50). The protocol: as §2, §4, §5
Series [9] concerns colon cancer cell line HCT15. The series can be described thus: SRB cell viability assay, colon cancer cell line HCT15. In kind it is cell-based. The note with it: Homo sapiens, HCT-15, read-out: Growth inhibition value of cancer cell (IC50). The protocol:
as §2, §4, §5

Series [10] relates to colon cancer cell line SW480. The series can be described thus: SRB cell viability assay, colon cancer cell line SW480. In kind it is cell-based. Particulars: Homo sapiens, read-out: Growth inhibition value of cancer cell (IC50). The protocol: as §2, §4, §5

Structures are written as SMILES. Where two headings read alike, the source gives them in different places.

`O=c1[nH]cc(F)c(=O)[nH]1` [5-fluorouracil]: the “Effect of administration in combination” value was found to be 0.863 in the series with RKO cells (5-fluorouracil 0.08 μM + Asperphenin B 8 μM), 0.852 in the series on RKO cells (5-fluorouracil 0.4 μM + Asperphenin B 8 μM), 0.786 in the series with RKO cells (5-fluorouracil 2 μM + Asperphenin B 8 μM) and 0.765 in the series on RKO cells (5-fluorouracil 10 μM + Asperphenin B 8 μM). Also, in the series on RKO cells, the “Effects of cell growth inhibition in combination with Asperphenin B compared to the anticancer drug alone” value was “increased”.

For `CCCCCCCCC[C@@H](O)CC(=O)N[C@@H](CC(N)=O)C(=O)N[C@@H](CCC(N)=O)C(=O)N[C@@H](CC(=O)c1cc(C)cc(O)c1C(=O)c1c(O)cccc1O)CC(C)C` [Asperphenin A], the IC50 in [1] (HCT116, 72 hours, Table 3, read-out: Cell growth inhibition concentration (IC50)) is 1700 nM; in series [2] it was 5800 nM; in series [3], 2300 nM; in series [4] it was 3100 nM; in series [6] it was 14600 nM. Also, the “Solubility in organic solvent” value in series [5] (methanol and acetone) is “well dissolved in a moderate organic solvent, such as methanol and acetone”. In series [5] (room temperature), the Stability result was “stable at room temperature”.

`COc1cc([C@@H]2c3cc4c(cc3[C@@H](O[C@@H]3O[C@@H]5CO[C@@H](C)O[C@H]5[C@H](O)[C@H]3O)[C@H]3COC(=O)[C@H]23)OCO4)cc(OC)c1O` [Etoposide, etoposide, reference compound]: the IC50 is 1900 nM in series [1] (Homo sapiens, HCT-116, HCT116, 72 hours, Table 3, read-out: Cell growth inhibition concentration (IC50)); 800 nM in [2] (Homo sapiens, SNU-638); 600 nM in series [3] (Homo sapiens, SK-HEP1); 10600 nM in series [4] (Homo sapiens); 700 nM in series [6] (Homo sapiens).

Take `Nc1ccn([C@@H]2O[C@H](CO)[C@@H](O)C2(F)F)c(=O)n1` [Gemsitabin, gemsitabin]: the “Effects of cell growth inhibition in combination with Asperphenin B compared to the anticancer drug alone” value in the series on RKO cells was “increased”. Further, the “Effect of administration in combination” value with RKO cells (gemsitabin 0.32 μM + Asperphenin B 8 μM) was 0.907; in the series with RKO cells (gemsitabin 1.6 μM + Asperphenin B 8 μM), 0.882; in the series with RKO cells (gemsitabin 8 μM + Asperphenin B 8 μM), 0.801; in the series with RKO cells (gemsitabin 40 μM + Asperphenin B 8 μM), 0.714.

`CCc1c2c(nc3ccc(OC(=O)N4CCC(N5CCCCC5)CC4)cc13)-c1cc3c(c(=O)n1C2)COC(=O)[C@]3(O)CC` [Irinotecan, irinotecan]: in the series with RKO cells, the “Effects of cell growth inhibition in combination with Asperphenin B compared to the anticancer drug alone” value was “increased”. For the same compound, the “Effect of administration in combination” value with RKO cells (irinotecan 1.25 μM + Asperphenin B 2.5 μM) is on record as 0.792; in the series with RKO cells (irinotecan 2.5 μM + Asperphenin B 2.5 μM), 0.751; with RKO cells (irinotecan 5 μM + Asperphenin B 2.5 μM), 0.691; with RKO cells (irinotecan 10 μM + Asperphenin B 2.5 μM), 0.650.

Regarding `CC(=O)O[C@H]1C(=O)[C@@]2(C)[C@H]([C@H](OC(=O)c3ccccc3)[C@]3(O)C[C@H](OC(=O)[C@H](O)[C@@H](NC(=O)c4ccccc4)c4ccccc4)C(C)=C1C3(C)C)[C@]1(OC(C)=O)CO[C@@H]1C[C@@H]2O` [Paclitaxel, paclitaxel, reference compound], the IC50 in series [1] (Homo sapiens, HCT-116, HCT116, Table 4, read-out: Growth inhibition value of cancer cell (IC50)) was 0.42 nM; in series [7] it was 0.21 nM; in series [8], 0.46 nM; in series [9] it was greater than 100 nM; in series [10] it was greater than 100 nM.

Source of the values: patent US10759831B2, “Peptide compound, production method therefor, and use thereof” (iNtRON Biotechnology, Inc., priority 2014, dated 2020).
